Results on 29 molecules are retold here after PubChem BioAssay (NCI).

Molecules are shown by their SMILES.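 Grown in 96-well plates, cells were treated for 48 hours with each compound at five concentrations. Insufficient inhibition: endpoint recorded as highest concentration tested. Definition used: TGI = concentration required for complete inhibition of growth.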 A value given as a limit tells only on which side of the number the result lay.

Common to all, as to assay: inhibition of tumour cell growth, NCI panel, 48 h
In assay [1] the test system is M14 melanoma.
Assay [2] concerns ACHN renal.
Assay [3] concerns IGROV1 ovarian.
The test system of assay [4] is SK-MEL-2 melanoma.
The subject of assay [5] is SNB-75 CNS.
Assay [6] has as its system SK-MEL-28 melanoma.
Assay [7] deals with HOP-92 NSCLC.

For `O=C(O)CCSC(=O)Nc1ccc([N+](=O)[O-])cc1`, the TGI in assay [1] is more than 100 µM; in assay [2], more than 100 µM; in assay [3], more than 100 µM; in assay [4] it was more than 100 µM; in assay [5], 64.7 µM; in assay [6], more than 100 µM.
Consider `COCCCNC(=O)C1C(=O)C(=O)N(CCCOC)C1=O` (centres undefined), for which the TGI in assay [7], in assay [1], in assay [2], in assay [3], in assay [4] and in assay [5] was more than 100 µM in each case. The TGI in assay [6] is more than 100 µM.
For the molecule `O=C(CCN(C(=O)O)S(=O)(=O)c1ccc(NC(=O)c2ccccc2)cc1)NC1CCCCC1`, the TGI in assay [7], in assay [1], in assay [2], in assay [3], in assay [4] and in assay [5] was more than 100 µM each time. Moreover, in assay [6], the TGI was more than 100 µM.
For the molecule `COC1(OC)CC2OC1C1N=NN(C(=O)OC(C)(C)C)C21` (centres undefined), the TGI in assay [7], in assay [1], in assay [2], in assay [3], in assay [4] and in assay [5] was more than 100 µM in each case. This molecule had a TGI in assay [6] of more than 100 µM.
For `CCOC(=O)/C(=C\c1ccccc1)C(=O)O`, the TGI in assay [7], in assay [1], in assay [2], in assay [3], in assay [4] and in assay [6] was more than 100 µM each time.
As to `O=C(CC1(O)C(=O)Nc2ccccc21)c1ccncc1` (centres undefined), the TGI in assay [7], in assay [1], in assay [2], in assay [3], in assay [4] and in assay [5] was more than 100 µM each time. Moreover, in assay [6], the TGI is more than 100 µM.
For the molecule `Nc1cccc(S(=O)(=O)NCC(=O)O)c1`, the TGI in assay [1], in assay [2], in assay [3], in assay [4], in assay [5] and in assay [6] was more than 100 µM in each case.
As to `C[C@@H]1OC(=O)N2CCCC(=C3SCCCS3)C12` (some centres undefined), the TGI in assay [7] is 84.9 µM; in assay [1], more than 100 µM; in assay [2] it was more than 100 µM; in assay [3] it was more than 100 µM; in assay [4] it was more than 100 µM; in assay [5], more than 100 µM. In addition, in assay [6], the TGI is more than 100 µM.
On to `CCN(CC)C(c1ccc(N(C)C)cc1)C(c1ccc(N(C)C)cc1)N(CC)CC` (centres undefined), for which the TGI was 45.7 µM in assay [7]; more than 73 µM in assay [1]; more than 73 µM in assay [2]; more than 73 µM in assay [3]; more than 73 µM in assay [4]; more than 73 µM in assay [5]. Also, the TGI in assay [6] is more than 73 µM.
For the molecule `O=[N+]([O-])c1ccc(C=NC2CCCCC2)cc1`, the TGI in assay [7], in assay [1], in assay [2], in assay [3], in assay [4] and in assay [5] was more than 100 µM in each case. The molecule also returned a TGI in assay [6] of more than 100 µM.
Take `O=C(CC1(O)C(=O)Nc2c(Cl)ccc(Cl)c21)c1ccc(F)cc1` (centres undefined): the TGI in assay [7] is 82.8 µM; in assay [1], more than 100 µM; in assay [2] it was more than 100 µM; in assay [4], more than 100 µM; in assay [5] it was 74.7 µM; in assay [6], more than 100 µM.
Regarding `O=C(CCc1cc(-c2ccccc2)nc(=S)[nH]1)N(Cc1ccccc1)Cc1ccccc1`, the TGI in assay [7], in assay [1], in assay [2], in assay [3] and in assay [4] was more than 100 µM in each case.
For `COc1ccc2c(c1)[n+](=O)c(C(=O)C/C(=N/OCCCc1ccccc1)C(=O)NC13CC4CC(CC(C4)C1)C3)c(C)n2[O-]`, the TGI in assay [1], in assay [2], in assay [3], in assay [4], in assay [5] and in assay [6] was more than 100 µM in each case.
On to `N#C/C(=C\c1ccc2ccccc2c1)c1ccccc1`, for which the TGI in assay [7] is more than 100 µM; in assay [1] it was 65.6 µM; in assay [2], 98.3 µM; in assay [3] it was 37.3 µM; in assay [4], 85 µM; in assay [5], 48.6 µM. Further, the TGI in assay [6] is more than 100 µM.
Regarding `Cc1cc(N(CCC#N)CCC#N)ccc1/C=C1\N=C(c2cc([N+](=O)[O-])ccc2Cl)N(c2cccc(Cl)c2)C1=O`, the TGI in assay [7], in assay [1], in assay [2], in assay [3], in assay [4] and in assay [5] was more than 100 µM each time. Moreover, the TGI in assay [6] was more than 100 µM.
Take `O=C(O)C(CS)Nc1c2ccccc2nc2ccccc12` (centres undefined): the TGI in assay [7], in assay [1], in assay [2], in assay [3], in assay [4] and in assay [5] was more than 100 µM each time. For the same molecule, the TGI in assay [6] was more than 100 µM.
As to `Nc1c(-c2ccc(Cl)cc2)[n+]([O-])c2ccccc2[n+]1[O-]`, the TGI in assay [7], in assay [1], in assay [2], in assay [3], in assay [4] and in assay [5] was more than 100 µM each time. Further, in assay [6], the TGI was more than 100 µM.
Consider `COc1ccc2nc3c(C(=O)NCCN(C)C)cccc3nc2c1`, for which the TGI in assay [7] was 24 µM; in assay [1] it was 19.5 µM; in assay [2], more than 100 µM; in assay [3], 93.5 µM; in assay [4], 21.8 µM; in assay [5], 25.5 µM. In assay [6], this molecule gave a TGI of 26.1 µM.
Turning to `CNC(=O)C1CCc2nnc(-c3ccccc3)n21` (centres undefined), the TGI in assay [1], in assay [2], in assay [3], in assay [4], in assay [5] and in assay [6] was more than 100 µM throughout.
Take `O=C(N/C(=C\c1cccc([N+](=O)[O-])c1)c1nc2ccc([N+](=O)[O-])cc2[nH]1)c1ccccc1`: the TGI was 60.7 µM in assay [7]; more than 100 µM in assay [1]; more than 100 µM in assay [2]; 74.4 µM in assay [3]; 61 µM in assay [4]; more than 100 µM in assay [6].
As for `CC(C)(C)c1cc(CCC(=O)Nc2ccc(Cl)cc2)nc(NC#N)n1`, the TGI in assay [7], in assay [1], in assay [2], in assay [3], in assay [4] and in assay [6] was more than 100 µM in each case.
Turning to `CCOC(=O)/C(C#N)=C/c1[nH]c(C(=O)OCc2ccccc2)c(C)c1C`, the TGI in assay [7], in assay [1], in assay [2], in assay [3], in assay [4] and in assay [5] was more than 100 µM in each case. The molecule also returned a TGI in assay [6] of more than 100 µM.
Take `CN(C)CCNC(=O)c1cccc2ccc(-c3ccncc3)nc12`: the TGI in assay [7] came to 7.31 µM; in assay [1], 16.1 µM; in assay [3] it was 8.37 µM; in assay [4], 13.3 µM; in assay [5], 9.9 µM; in assay [6], 17.5 µM.
In the case of `Cc1ccc(NC(=O)CC(=O)n2nc(C)c(N=Nc3ccccc3C(=O)O)c2C)cc1`, the TGI in assay [1], in assay [3], in assay [4], in assay [5] and in assay [6] was more than 100 µM throughout.
With `NC12CC3CC(C1)CC(C(=O)O)(C3)C2`, the TGI in assay [7], in assay [1], in assay [2], in assay [3], in assay [5] and in assay [6] was more than 100 µM in each case.
Turning to `C/C(CC(=O)Nc1cc(C)ccc1C)=N\NC(=O)c1ccncc1`, the TGI in assay [7], in assay [1], in assay [3], in assay [4], in assay [5] and in assay [6] was more than 100 µM throughout.
As to `COc1ccc(NC(=O)CC(=O)N/N=C/c2ccc(N(CCC#N)S(C)(=O)=O)cc2)cc1`, the TGI in assay [1], in assay [2], in assay [3], in assay [4], in assay [5] and in assay [6] was more than 100 µM each time.
Consider `NC1=NC(c2ccccc2)CC(c2cc(Cl)ccc2O)=N1` (centres undefined), for which the TGI stood at 33.5 µM in assay [7]; 30.5 µM in assay [1]; 29.4 µM in assay [2]; 42.1 µM in assay [3]; 31.7 µM in assay [5]; 33.5 µM in assay [6].
For the molecule `COc1cc(Nc2nc3ccccc3nc2-c2cccs2)cc(OC)c1OC`, the TGI was 83.9 µM in assay [7]; more than 100 µM in assay [2]; more than 100 µM in assay [4]; more than 100 µM in assay [5]; more than 100 µM in assay [6].
